According to US10004754B2, “ANP fragment adjuvant therapy to standard of care (SOC) diuretic treatment” (MADELEINE PHARMACEUTICALS PTY LTD, priority 2014, dated 2018):
Where no end group is shown, it is not given here.

Legend:
stable CHF patients [1] = experiment: Cardiovascular haemodynamics (Swan-Ganz catheterisation) with sc VSDL infusion, Example 2; format: in vivo, human; conditions: for Cardiac Output, Mean / Cardiac Output, Median: baseline 4.7; for systemic vascular resistance: baseline=3076+929
Description: (§1) A second study was conducted with a population of eighteen (18) test adult CHF patients, both male and female, in order to further evaluate the improvement in renal and cardiac function in stable CHF patients given VSDL (by sc administration) in addition to standard of care (SOC) treatment.
(§2) Participants were selected on the basis of the Inclusion and Exclusion criteria given in Example 1. […] In addition, selected patients were required to have a plasma brain natriuretic peptide (BNP) concentration of ≥100 pg/mL and a GFR ≥25 mL/min and <70 mL/min as calculated by the Cockroft Gault calculation (ie moderate renal impairment). On the other hand, the presence of acute MI (ie as indicated by ST elevation and/or elevation of Troponin-T) or evidence of MI or other high risk acute coronary syndrome within the past 6 weeks, hypotension (ie systolic blood pressure (SBP) <90 mmHg), persistent and/or uncontrolled hypertension (SBP>180 mmHg), cardiogenic shock or any other clinical condition that would contraindicate administration of an agent with potent vasodilatory effects, excluded patients from participating in the study. Participants in this study also had standard exclusion criteria that accompany pulmonary artery (SG) catheterisation.
(§3) The study was an open-label, sequential group, continuous sc infusion study conducted at a single centre. Two steady-state concentration levels (Css) of VSDL were targeted, approximately 10 ng/mL (n=2 lead-in, and n=10, cohort 1) and 20 ng/mL (n=6, cohort 2). The two lead-in patients were treated with similar dose regimens to confirm that the measured plasma concentrations were in agreement with the targeted Css. Two patients from cohort 1 and all 6 patients from cohort 2 underwent pulmonary artery Swan-Ganz (SG) catheterisation to enable haemodynamic monitoring.
(§4) VSDL prepared as described in Example 1, was administered via sc 6 or 12 hour infusion into the lower abdomen at a maximum volume rate of 350 μL/hr (ie approximately 6 μL/min). The rate of infusion of VSDL for the targeted Css level of 10 ng/mL was either 900 μg/hr (0.3 mL/hr) for 12 hrs or a bimodal infusion of 900 μg/hr for 5 hrs followed by 550 μg/hr (0.18 mL/hr) for 7 hrs. The rate of infusion of VSDL for the targeted Css level of 20 ng/mL was bimodal; 1800 μg/hr (0.20 mL/hr) for 5 hrs followed by 1100 μg/hr (0.12 mL/hr) for 7 hrs (see WO 2014/138796). For the lead-in patients, the infusions were performed at 900 μg/hr for 6 hrs.
(§5) R Studio (version 4) and GraphPad Prism (GraphPad Software, version 6) were used for all statistical analyses. Statistically significant changes from base line for all parameters were tested using with linear mixed effects model or one-way repeated measures ANOVA with Bonferroni correction. A p value of 0.05 was set for statistically significant differences. All data are reported as mean±s.d or mean (95% CI).

stable CHF patients [2] = experiment: Renal function (eGFR, plasma creatinine, MAG3 clearance) with sc VSDL infusion, Example 2; format: in vivo, human; conditions: for Plasma Creatinine % Change: given without sign, a decrease; for Plasma Creatinine: baseline 161.7 ± 58; for MAG3 Clearance % change: Post-Treatment vs Pre-Treatment
Description: as §1, §2, §3, §4, §5
This change was also accompanied by a 10% decrease in plasma creatinine from 162±58 μmol/L at baseline to […] (p≤0.05) during infusion (Table 6).

EVVPPQVLSEPNEEAGAALSPLPEVPPWTGEVSPAQR [VSDL]
Cardiac Output, Mean (stable CHF patients [1]; >0.5-6 hrs): 4.6 L/min
Cardiac Output, Median (stable CHF patients [1]; >0.5-6 hrs): 4.2 L/min
Cardiac Output, Mean (stable CHF patients [1]; >6-12 hrs): 4.9 L/min
Cardiac Output, Median (stable CHF patients [1]; >6-12 hrs): 4.3 L/min
Cardiac Output, Mean (stable CHF patients [1]; >12-24 hrs): 5.0 L/min
Cardiac Output, Median (stable CHF patients [1]; >12-24 hrs): 4.4 L/min
pulmonary capillary wedge pressure (stable CHF patients [1]; adjuvant VSDL treatment, limited patient numbers to date): either decreased or unchanged
pulmonary vascular resistance (stable CHF patients [1]; infusion of VSDL): no changes
increase in cardiac output on average above baseline (regression of cardiac output on time) (stable CHF patients [1]; t=3.16, p≤0.05, FIG. 1): 0.000472 L/min
systemic vascular resistance (stable CHF patients [1]; ≥0.5-6 hs): 2658+676 dyn·s/cm^5
systemic vascular resistance (stable CHF patients [1]; ≥6-12 hs): 2529+509 dyn·s/cm^5
systemic vascular resistance (stable CHF patients [1]; ≥12-24 hs): 2485+645 dyn·s/cm^5
Plasma Creatinine % Change (stable CHF patients [2]; >0.5-6 hs vs baseline): (8) %
Plasma Creatinine (stable CHF patients [2]; >0.5-6 hs): 148.5 ± 60 µmol/L
Plasma Creatinine % Change (stable CHF patients [2]; >6-12 hs vs baseline): (10) %
Plasma Creatinine (stable CHF patients [2]; >6-12 hs): 146 ± 60 µmol/L
eGFR and plasma creatinine in relation to plasma concentration of VSDL (stable CHF patients [2]; FIGS. 6A and B): improved with rising circulating levels of VSDL
MAG3 Clearance, Post (Pre-Treatment) (stable CHF patients [2]; Stage 3A CKD): 14 ± 7 ml/min/1.73 m^2
MAG3 Clearance % change (stable CHF patients [2]; Stage 3A CKD): (9) %
MAG3 Clearance (stable CHF patients [2]; Stage 3A CKD, Post-Treatment, Pre-Treatment 148.5 ± 26): 162.5 ± 24 ml/min/1.73 m^2
MAG3 Clearance, Post (Pre-Treatment) (stable CHF patients [2]; Stage 3B CKD): .3 ± 9 ml/min/1.73 m^2
MAG3 Clearance % change (stable CHF patients [2]; Stage 3B CKD): (0) %
MAG3 Clearance (stable CHF patients [2]; Stage 3B CKD, Post-Treatment, Pre-Treatment 164.5 ± 32): 164.8 ± 33 ml/min/1.73 m^2
MAG3 Clearance, Post (Pre-Treatment) (stable CHF patients [2]; Stage 4 CKD): 17 ± 16 ml/min/1.73 m^2
MAG3 Clearance % change (stable CHF patients [2]; Stage 4 CKD): (16) %
MAG3 Clearance (stable CHF patients [2]; Stage 4 CKD, Post-Treatment, Pre-Treatment 106.0 ± 58): 123.3 ± 56 ml/min/1.73 m^2
eGFR and MAG3 clearance across all classes of CKD (stable CHF patients [2]; adjuvant treatment with VSDL): numerical increases
MAG3 Clearance, Post (Pre-Treatment) (stable CHF patients [2]; all patients): 9 ± 12 ml/min/1.73 m^2
MAG3 Clearance % change (stable CHF patients [2]; all patients): (6) %
MAG3 Clearance (stable CHF patients [2]; all patients, Post-Treatment, Pre-Treatment 140.3 ± 44): 148.9 ± 41 ml/min/1.73 m^2
decrease in plasma creatinine (stable CHF patients [2]; during infusion vs baseline): 10%
improvement in eGFR (stable CHF patients [2]; during the 12 hour infusion vs baseline): 16%
estimated glomerular filtration rate (eGFR) (stable CHF patients [2]; during the 12 hour infusion, baseline 38±11, p≤0.05): 44±14 ml/min/1.73 m^2
eGFR % Change (stable CHF patients [2]; eGFR 15-29 (Stage 4 CKD), >0.5-6 hs vs baseline): (23) %
eGFR (stable CHF patients [2]; eGFR 15-29 (Stage 4 CKD), >0.5-6 hs, baseline 23.5 ± 5): 28.8 ± 10 ml/min/1.73 m^2
eGFR (stable CHF patients [2]; eGFR 15-29 (Stage 4 CKD), >6-12 hs, baseline 23.5 ± 5): 30 ± 12 ml/min/1.73 m^2
eGFR % Change (stable CHF patients [2]; eGFR 30 to 44 (Stage 3B CKD), >0.5-6 hs vs baseline): (12) %
eGFR (stable CHF patients [2]; eGFR 30 to 44 (Stage 3B CKD), >0.5-6 hs, baseline 37.7 ± 4): 42.3 ± 10 ml/min/1.73 m^2
eGFR % Change (stable CHF patients [2]; eGFR 30 to 44 (Stage 3B CKD), >6-12 hs vs baseline): (12) %
eGFR (stable CHF patients [2]; eGFR 30 to 44 (Stage 3B CKD), >6-12 hs, baseline 37.7 ± 4): 42.3 ± 10 ml/min/1.73 m^2
eGFR % Change (stable CHF patients [2]; eGFR 45-59 (Stage 3A CKD), >0.5-6 hs vs baseline): (8) %
eGFR (stable CHF patients [2]; eGFR 45-59 (Stage 3A CKD), >0.5-6 hs, baseline 49.8 ± 3): 54.0 ± 4 ml/min/1.73 m^2
eGFR % Change (stable CHF patients [2]; eGFR 45-59 (Stage 3A CKD), >6-12 hs vs baseline): (14) %
eGFR (stable CHF patients [2]; eGFR 45-59 (Stage 3A CKD), >6-12 hs, baseline 49.8 ± 3): 56.6 ± 4 ml/min/1.73 m^2
renal function (eGFR, MAG3 clearance, plasma creatinine), trend (stable CHF patients [2]; lead-in patients, 900 μg/hr sc for 6 hours): improved renal function
eGFR % Change (stable CHF patients [2]; patients with eGFR 15-60, >0.5-6 hs vs baseline): (12) %
eGFR (stable CHF patients [2]; patients with eGFR 15-60, >0.5-6 hs, baseline 37.9 ± 11): 42.6 ± 13 ml/min/1.73 m^2
eGFR % Change (stable CHF patients [2]; patients with eGFR 15-60, >6-12 hs vs baseline): (16) %
eGFR (stable CHF patients [2]; patients with eGFR 15-60, >6-12 hs, baseline 37.9 ± 11): 43.8 ± 14 ml/min/1.73 m^2
MAG3 Clearance (stable CHF patients [2]; post-treatment, pre-treatment 140±44, p≤0.05): 149±41 ml/min/1.73 m^2
